The values that follow are results of earlier work, collected in patent US20100183726A1, “COMPOSITIONS AND METHODS FOR TREATING CANCER WITH DACARBAZINE NANOEMULSIONS” (priority 2006, published 2010).

One data set relates to melanoma B16F10 cells. Conditions: 150 mg/kg; 14 days after inoculation; p<0.01 versus untreated controls.
A further data set deals with Cloudman S91 cells. Conditions: 100 μg/ml.
Assay in data set [1]: not given
This is another data set of the same source.

Another data set concerns B16 cells. Conditions: 200 μg/ml.
Where [2] appears, read: dacarbazine alone, meta-analysis of 14 studies, 1167 patients.

Where two headings read alike, the source gives them in different places.

On to `NC(=O)c1nc[nH]c1N` [AIC, 5-aminoimidazol-me-4-carboxamide], for which the “time to maximal serum concentration” value (after injection of dacarbazine) was 15 min. For the same compound, under “in vivo, iv”, the “time at which detectable after intravenous injection of dacarbazine” value is 15 min.
Take `CN(C)N=Nc1[nH]cnc1C(N)=O` [dacarbazine, 5-(3,3-dimethyl-1-triazeno)imidazole-4-carboxamide]: in the data set with metastatic melanoma (143 patients treated with dacarbazine alone), the complete remission was 5%. For the same compound, in the data set with metastatic melanoma (contemporary trials), the average response rates is listed as under 10% and the median progression-free survival is given as at most 2 months. Besides, in the data set on metastatic melanoma (setting [2]), the average mean survival was 8 months, the average response rate is recorded as 18.7% and the “complete remission average rate” value is 5.4%. Besides, in the data set on melanoma B16 cells (B16 cells implanted intraperitoneally), the increased survival time is given as 29%. Also, the increased survival time in the data set with melanoma B16 cells (B16 cells implanted subcutaneously) is 43%. Further, the “inhibition of tumor growth” value in the data set on melanoma B16 cells (intraperitoneal injection) is reported as “did not inhibit tumor growth”. Also, the “number of metastatic pulmonary nodules” value with melanoma B16F10 cells is on record as “significantly decreased”. Also, the “highest induction of apoptosis” value with Cloudman S91 cells is recorded as 22.2%. Further, in data set [1] (in vivo), the “patients developing constitutional symptoms (nausea, vomiting, occasionally diarrhea)” value is listed as 90%. Further, the cytopenia grade result in data set [1] (white cell and platelet counts after injection) is recorded as “WHO grade 1 or rarely grade 2”. Moreover, the “highest induction of apoptosis” value in the data set on B16 cells is listed as 11%. Besides, the “T50% α value relative to typical dose” value (higher doses (850-1980 mg/m^2)) is listed as 3.5 fold. For the setting “in vivo”, the “injected dose crossing the blood-brain barrier” value is on record as 13%, the protein binding result is “binds weakly to proteins”, the “secretion in breast milk” value is on record as “secreted in breast milk” and the volume of distribution entry was “exceeds the water volume of the body”. For the setting “intravenously injected”, the bioavailable fraction is 50-60%. In addition, the “fraction of an oral dose absorbed” value (oral administration) was 14-23%. Further, the renal clearance result (regardless of the dose injected) is “exceeds creatinine clearance”.
